Experiment [1] deals with T1, 3-oxo-5-alpha-steroid 4-dehydrogenase 2 (Homo sapiens, UniProt P31213).
T1 sequence (P31213 whole entry): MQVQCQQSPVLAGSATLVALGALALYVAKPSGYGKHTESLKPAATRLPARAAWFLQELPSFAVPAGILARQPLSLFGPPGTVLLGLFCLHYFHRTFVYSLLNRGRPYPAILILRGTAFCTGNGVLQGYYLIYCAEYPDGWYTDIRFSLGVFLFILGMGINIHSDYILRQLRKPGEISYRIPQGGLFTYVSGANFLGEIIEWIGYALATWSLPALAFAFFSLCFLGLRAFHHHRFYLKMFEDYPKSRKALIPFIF
In words: Compound was tested for inhibitory activity against human prostatic Steroid 5-alpha-reductase. The settings on record: read-out: Ki app.

The nature of experiment [2]: Compound was tested for in vitro inhibitory activity against cynomolgus monkey Steroid 5-alpha-reductase. More on the design: species or system Cercopithecidae.
Experiment [3] deals with T1, 3-oxo-5-alpha-steroid 4-dehydrogenase 2. Description: Compound was tested for inhibitory activity against human prostatic Steroid 5-alpha-reductase at 5 uM concentration; NS - No significant inhibition.

Where only a bound is given, the exact number is not on record here.

Turning to `CC(C)N(C(=O)[C@H]1CCC2C3CC=C4C=C([N+](=O)[O-])CC[C@]4(C)C3CC[C@@]21C)C(C)C` (stereo partly specified), the Ki in experiment [1] came out at 590 nM.

As to `CC(C)N(C(=O)[C@H]1CC[C@H]2[C@@H]3CCc4cc(C(=O)O)ccc4[C@H]3CC[C@]12C)C(C)C`, the Ki in experiment [1] amounted to 20 nM.

As to `CC(C)N(C(=O)[C@H]1CCC2C3CC[C@H]4C=C([N+](=O)[O-])CC[C@]4(C)C3CC[C@@]21C)C(C)C` (stereo partly specified), the Ki in experiment [2] was below 1 nM; in experiment [1], 50 nM.

With `CC(C)N(C(=O)[C@H]1CCC2C3CC=C4C=C(C(=O)O)CC[C@]4(C)C3CC[C@@]21C)C(C)C` (stereo partly specified), the Ki in experiment [2] was 4 nM.

Take `CC(C)N(C(=O)[C@H]1CC[C@H]2[C@@H]3CCc4cc([N+](=O)[O-])ccc4[C@H]3CC[C@]12C)C(C)C`: the Ki app result in experiment [3] is reported as “Not Active”.

The values are drawn from ChEMBL document CHEMBL1125939, “Inhibition of steroid 5-reductase by 3-nitrosteroids: synthesis, mechanism of inhibition, and in vivo activity” (Bioorg Med Chem Lett, 1991).
